Reference: patent USRE47221E1, “Tricyclic compounds” (AbbVie Inc., priority 2009, dated 2019)

These compounds were tested against T1, Jak3 (Homo sapiens, UniProt P52333) (assay: Jak3 enzyme data for selected compounds).
T1 construct: Jak3 enzyme (aa 811-1103); expressed in SF9 cells as a GST fusion; GST; made in house; host or cells: SF9 insect cells
Assay type: biochemical

T1 sequence (P52333 811-1103): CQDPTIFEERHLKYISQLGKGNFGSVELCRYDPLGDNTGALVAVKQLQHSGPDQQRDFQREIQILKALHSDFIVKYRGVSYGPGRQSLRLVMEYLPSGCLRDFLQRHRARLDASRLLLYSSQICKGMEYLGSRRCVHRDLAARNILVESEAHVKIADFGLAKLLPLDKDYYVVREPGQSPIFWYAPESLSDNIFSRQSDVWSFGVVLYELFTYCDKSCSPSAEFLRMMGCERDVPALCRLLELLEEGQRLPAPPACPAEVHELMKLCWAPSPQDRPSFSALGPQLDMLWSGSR

Row | IC50 [nM] | SMILES
1 | < 100 | C[C@@H]1CCN(C(=O)N2CC[C@H](C#N)C2)C[C@@H]1c1ncc2cnc3[nH]ccc3n12 (racemic) [J.2.1]
2 | 100 to 1000 | CC[C@@H]1C[C@H](N(C#N)S(=O)(=O)C2CC2)C[C@@H]1c1nnc2cnc3[nH]ccc3n12 [Example #32, N-cyano-N-((1S,3R,4S)-3-ethyl-4-(6H-pyrrolo[2,3-e][1,2,4]triazolo[4,3-a]pyrazin-1-yl)cyclopentyl)cyclopropanesulfonamide]
3 | < 100 | C[C@@H]1CCN(C(=O)N2CCC[C@H]2C#N)C[C@@H]1c1ncc2cnc3[nH]ccc3n12 [J.2.3]
4 | < 100 | CC[C@@H]1C[C@@H](OCc2ccc(C#N)cc2)C[C@@H]1c1nnc2cnc3[nH]ccc3n12 (single isomer, unassigned) [AA.1.101, 4-((3-ethyl-4-(6H-pyrrolo[2,3-e][1,2,4]triazolo[4,3-a]pyrazin-1-yl)cyclopentyloxy)methyl)benzonitrile]
5 | 100 to 1000 | C[C@@H]1C[C@H](Nc2cnc(C#N)cn2)C[C@@H]1c1ncc2cnc3[nH]ccc3n12 [D.2.21]
6 | 100 to 1000 | N#Cc1cnc(NC[C@H]2CC[C@@H](c3ncc4cnc5[nH]ccc5n34)C2)cn1 [D.2.15]
7 | > 1000 | CC[C@@H]1C[C@H](OCC2CCOCC2)C[C@H]1c1nnc2cnc3[nH]ccc3n12 (single isomer, unassigned) [AA.1.66, 1-(2-ethyl-4-((tetrahydro-2H-pyran-4-yl)methoxy)cyclopentyl)-6H-pyrrolo[2,3-e][1,2,4]triazolo[4,3-a]pyrazine]
8 | < 100 | C[C@@H]1CCN(C(=O)N2CCC[C@@H]2C#N)C[C@@H]1c1ncc2cnc3[nH]ccc3n12 [J.2.2]
9 | 100 to 1000 | CC[C@@H]1C[C@@H](OCC2CC2)C[C@@H]1c1nnc2cnc3[nH]ccc3n12 (single isomer, unassigned) [AA.1.90, 1-(4-(cyclopropylmethoxy)-2-ethylcyclopentyl)-6H-pyrrolo[2,3-e][1,2,4]triazolo[4,3-a]pyrazine]
10 | < 100 | CC[C@@H]1C[C@H](NS(=O)(=O)C2CC2)CN1c1ncc2cnc3[nH]ccc3n12 [D.1.46]
11 | 100 to 1000 | C[C@@H]1CCN(C(=O)C2(C#N)CC2)C[C@@H]1c1ncc2cnc3[nH]ccc3n12 (racemic) [H.3.14]
12 | < 100 | CC[C@@H]1C[C@@H](Oc2ccc(C#N)cc2)C[C@@H]1c1ncc2cnc3[nH]ccc3n12 [D.2.24]
13 | > 1000 | CC[C@@H]1C[C@H](OCC2CC2)C[C@@H]1c1nnc2cnc3[nH]ccc3n12 (single isomer, unassigned) [AA.1.80, 1-(4-(cyclopropylmethoxy)-2-ethylcyclopentyl)-6H-pyrrolo[2,3-e][1,2,4]triazolo[4,3-a]pyrazine]
14 | < 100 | C[C@@H]1CCN(c2cnc(C#N)cn2)C[C@@H]1c1ncc2cnc3[nH]ccc3n12 (racemic) [L.1.2]
15 | > 1000 | C[C@H]1C[C@H](Oc2ccc(C#N)cc2)C[C@H]1c1nnc2cnc3[nH]ccc3n12 (single isomer, unassigned) [AA.1.93, 4-(3-methyl-4-(6H-pyrrolo[2,3-e][1,2,4]triazolo[4,3-a]pyrazin-1-yl)cyclopentyloxy)benzonitril]
16 | < 100 | CC[C@@H]1C[C@H](NS(=O)(=O)C2CC2)C[C@@H]1c1nc(Br)c2cnc3[nH]ccc3n12 [D.1.45]
17 | 100 to 1000 | CC[C@@H]1C[C@@H](Oc2ccc(C#N)cn2)C[C@@H]1c1nnc2cnc3[nH]ccc3n12 (racemic) [D.2.22]
18 | < 100 | C[C@@H]1C[C@H](NS(=O)(=O)N2CCC(F)(F)C2)C[C@@H]1c1ncc2cnc3[nH]ccc3n12 [D.1.80]
19 | > 1000 | CC[C@H]1C[C@H](Oc2ccc(C(F)(F)F)cn2)C[C@H]1c1nnc2cnc3[nH]ccc3n12 (single isomer, unassigned) [AA.1.96, 1-(2-ethyl-4-(5-(trifluoromethyl)pyridin-2-yloxy)cyclopentyl)-6H-pyrrolo[2,3-e][1,2,4]triazolo[4,3-a]pyrazine]

The remaining lines, values behind:

Row | SMILES | IC50 [nM]
20 | CC[C@@H]1C[C@H](NS(=O)(=O)CCC(F)(F)F)C[C@@H]1c1cnc2cnc3[nH]ccc3n12 (single isomer, unassigned) [AA.1.77, N-(3-ethyl-4-(3H-imidazo[1,2-a]pyrrolo[2,3-e]pyrazin-8-yl)cyclopentyl)-3,3,3-trifluoropropane-1-sulfonamide] | < 100
21 | C[C@@H]1CCN(C(=O)N2CCCCC2)C[C@@H]1c1ncc2cnc3[nH]ccc3n12 [I.1.1, ((3R,4R)-3-(6H-imidazo[1,5-a]pyrrolo[2,3-e]pyrazin-1-yl)-4-methylpiperidin-1-yl)(piperidin-1-yl)methanone] | < 100
22 | CC[C@@H]1C[C@H](NS(=O)(=O)N2CCN(C)CC2)C[C@@H]1c1nnc2cnc3[nH]ccc3n12 [D.1.50] | > 1000
23 | N#Cc1ccnc(NC[C@H]2CC[C@@H](c3nnc4cnc5[nH]ccc5n34)C2)c1 [D.2.23] | > 1000
24 | C[C@@H]1C[C@H](OCC2CC2)C[C@@H]1c1nnc2cnc3[nH]ccc3n12 [D.1.54] | > 1000
25 | O=C(N1CCC[C@@H](c2cnc3cnc4[nH]ccc4n23)C1)N1CC(F)(F)C1 (single isomer, unassigned) [AA.1.6, (3-(3H-imidazo[1,2-a]pyrrolo[2,3-e]pyrazin-8-yl)piperidin-1-yl)(3,3-difluoroazetidin-1-yl)methanone] | < 100
26 | C[C@@H]1C[C@H](NS(=O)(=O)C2CC2)CN1c1ncc2cnc3[nH]ccc3n12 [D.1.47] | 100 to 1000
27 | N#C[C@H]1CCN(C(=O)N2CCC[C@@H](c3ncc4cnc5[nH]ccc5n34)C2)C1 [AA.1.12, 1-((R)-3-(6H-imidazo[1,5-a]pyrrolo[2,3-e]pyrazin-1-yl)piperidine-1-carbonyl)pyrrolidine-3-carbonitrile] | < 100
28 | CC[C@@H]1C[C@H](NS(=O)(=O)CC(F)(F)F)C[C@@H]1c1nnc2cnc3[nH]ccc3n12 [K.5.1] | < 100
29 | CC[C@@H]1C[C@H](NS(=O)(=O)N2CCC(F)(F)C2)C[C@@H]1c1nnc2cnc3[nH]ccc3n12 [D.1.13] | 100 to 1000
30 | O=S(=O)(NC12CCC(c3cnc4cnc5[nH]ccc5n34)(CC1)CC2)C1CC1 [K.3.1] | 100 to 1000
31 | CC[C@@H]1C[C@H](NS(=O)(=O)C2(CC)CC2)C[C@@H]1c1nnc2cnc3[nH]ccc3n12 [D.1.82] | 100 to 1000
32 | C[C@@H]1CCN(C(=O)N2CC[C@H](F)C2)C[C@@H]1c1ncc2cnc3[nH]ccc3n12 [J.2.12] | < 100
33 | CC[C@@H]1C[C@H](NS(=O)(=O)N2CC(F)(F)C2)C[C@@H]1c1cnc2cnc3[nH]ccc3n12 (single isomer, unassigned) [AA.1.79, N-(3-ethyl-4-(3H-imidazo[1,2-a]pyrrolo[2,3-e]pyrazin-8-yl)cyclopentyl)-3,3-difluoroazetidine-1-sulfonamide] | < 100
34 | C[C@@H]1CCN(C(=O)C2CC(F)(F)C2)C[C@@H]1c1ncc2cnc3[nH]ccc3n12 [H.1.21] | < 100
35 | c1cc2c(ncc3ncn(C4CCCCC4)c32)[nH]1 [Example #21, 1-cyclohexyl-1,6-dihydroimidazo[4,5-d]pyrrolo[2,3-b]pyridine] | 100 to 1000
36 | O=S(=O)(NC12CCC(c3nnc4cnc5[nH]ccc5n34)(CC1)CC2)N1CCC1 [D.1.29] | 100 to 1000
37 | CC[C@@H]1C[C@H](NS(=O)(=O)N2CCC[C@H]2C(F)(F)F)CC1c1nnc2cnc3[nH]ccc3n12 (some centres unmarked) [D.1.12] | 100 to 1000
38 | C[C@@H]1CCN(C(=O)N2CCOCC2)C[C@@H]1c1ncc2cnc3[nH]ccc3n12 [I.1.2] | < 100

Row | SMILES | IC50 [nM]
39 | CC[C@@H]1C[C@H](NS(=O)(=O)C2(C)CC2)C[C@@H]1c1nnc2cnc3[nH]ccc3n12 [D.1.35] | < 100
40 | CC1(S(=O)(=O)NC23CCC(c4nnc5cnc6[nH]ccc6n45)(CC2)CC3)CC1 [D.1.33] | > 1000
41 | CC[C@@H]1C[C@H](NS(=O)(=O)C2CC2)C[C@@H]1c1nnc2cnc3[nH]cc(I)c3n12 [Preparation #GGG.1, N-((1S,3R,4S)-3-ethyl-4-(8-iodo-6H-pyrrolo[2,3-e][1,2,4]triazolo[4,3-a]pyrazin-1-yl)cyclopentyl)cyclopropanesulfonamide] | 100 to 1000
42 | CC[C@@H]1C[C@H](NS(=O)(=O)N2CC(F)(F)C2)C[C@@H]1c1nnc2cnc3[nH]ccc3n12 [D.1.11] | 100 to 1000
43 | CC1CCN(S(=O)(=O)CCC(F)(F)F)CCN1c1ncc2cnc3[nH]ccc3n12 (centres unmarked) [D.1.70] | 100 to 1000
44 | CC[C@H]1C[C@@H](NS(=O)(=O)C2CC2)C[C@]1(F)c1nnc2cnc3[nH]ccc3n12 (single isomer, unassigned) [AA.1.44, N-(cis-4-ethyl-3-fluoro-3-(6H-pyrrolo[2,3-e][1,2,4]triazolo[4,3-a]pyrazin-1-yl)cyclopentyl)cyclo-propanesulfonamide] | 100 to 1000
45 | FC(F)(F)c1nc2cnc3[nH]ccc3c2n1C1CCCCC1 [D.1.52] | 100 to 1000
46 | CC[C@@H]1C[C@H](NS(=O)(=O)C2CC2)C[C@@H]1c1nnc2cnc3[nH]cc(C#N)c3n12 [LL.1.3] | > 1000
47 | CC[C@@H]1C[C@H](NS(=O)(=O)CCC(F)(F)F)C[C@@H]1c1nnc2cnc3[nH]ccc3n12 [D.1.24] | 100 to 1000
48 | O=C(N1CCC(F)(F)CC1)N1CCC[C@@H](c2cnc3cnc4[nH]ccc4n23)C1 (single isomer, unassigned) [AA.1.9, (3-(3H-imidazo[1,2-a]pyrrolo[2,3-e]pyrazin-8-yl)piperidin-1-yl)(4,4-difluoropiperidin-1-yl)methanone] | 100 to 1000
49 | O=S(=O)(CCC(F)(F)F)N1CC2CC1CN2c1ncc2cnc3[nH]ccc3n12 (centres unmarked) [D.1.63] | > 1000
50 | N#CC1CCN(C(=O)N2CCC[C@@H](c3ncc4cnc5[nH]ccc5n34)C2)CC1 [J.3.8] | 100 to 1000
51 | CC[C@@H]1C[C@H](NS(=O)(=O)CCN2CCC(F)(F)CC2)C[C@@H]1c1nnc2cnc3[nH]ccc3n12 [D.1.60] | > 1000
52 | O=S(=O)(CCC(F)(F)F)N1CCC2CC1CN2c1ncc2cnc3[nH]ccc3n12 (centres unmarked) [D.1.73] | > 1000
53 | O=S(=O)(CCC(F)(F)F)N1CCN(c2ncc3cnc4[nH]ccc4n23)CC(F)C1 (centres unmarked) [D.1.65] | > 1000
54 | O=S(=O)(NC12CCC(c3nnc4cnc5[nH]ccc5n34)(CC1)CC2)C1CCC1 [D.1.39] | 100 to 1000
55 | O=S(=O)(CCC(F)(F)F)NC[C@H]1CC[C@H](c2ncc3cnc4[nH]ccc4n23)C1 (single isomer, unassigned) [AA.1.63] | > 1000
56 | C[C@@H]1CCN(C(=O)CC(F)(F)F)C[C@@H]1c1ncc2cnc3[nH]ccc3n12 [H.1.2] | < 100
